For test [1], the system named is mouse vascular injury model. Put plainly: Neointimal formation suppressive effect in mouse vascular injury model. In kind it is in vivo. The note with it: high dose systemic administration: single intraperitoneal, 28 days after wire injury. The protocol: Using the pioglitazone-containing nanoparticles obtained in Example 1, the neointimal formation suppressive effect in mouse vascular injury model was tested. […] The both ends of the blood vessel were ligated with a 6-0 silk thread to temporarily shut off the blood flow. The branch was incised, and a wire (diameter […], No. C—SF-15-15, COOK) was inserted by 5 mm in the iliac artery side to injure the blood vessel. After wire injury, the experimental animals were divided into a solvent control group and pioglitazone-containing nanoparticle group. The wire was removed, 100 μl, each of a solvent and a pioglitazone-containing PLGA nanoparticle solution was intraarterially administered from the branch over 5 min. The solvent control group was administered with the solvent (phosphate buffered saline) alone only once. The pioglitazone-containing nanoparticle group was administered with the pioglitazone-containing PLGA nanoparticles obtained in Example 1 (containing 0.5 mg/mouse as nanoparticles, corresponding to pioglitazone concentration of 0.015 mg/mouse (0.5 mg/kg body weight)) once. After administration, the branch part was ligated, the blood flow was resumed and the skin was sutured. Immediately after the wire injury, a high dose (10-fold amount of clinical dose) pioglitazone hydrochloride (0.15 mg/mouse (5 mg/kg body weight) as pioglitazone) single time intraperitoneal administration group was formed. At 28 days after vascular injury, the right femoral artery was washed and fixed with phosphate buffered saline and neutral buffered formalin via the heart, and isolated. A paraffin section was prepared and stained with Elastica van Gieson, proliferating cell nuclear antigen (PCNA) was immunohistochemically stained, and evaluated for the intima/media ratio, neointimal area, medial area and cell proliferation. For immunohistochemical staining, the proliferated cells were counted and the ratio of thereof to the total cell number was calculated.

For test [2], the system named is Rat aortic smooth muscle cells. Put plainly: Delivery and retention of nanoparticles in cultured rat smooth muscle cells. In kind it is cell-based. Particulars: medium containing FITC alone. Here is the method:
Using the FITC-containing nanoparticles prepared in Experimental Example 3 (1), deliver and retention tests in cultured rat […] smooth muscle cell were performed.
Rat aortic smooth muscle cells (obtained from TOYOBO) were plated on a slide glass chamber to a subconfluent cell density in DMEM medium (Sigma) containing 10% fetal bovine serum (day 0). On day 2, the medium was changed to a medium containing FITC or FITC-containing nanoparticles (0.5 mg/mL in nanoparticles concentration).
At 5 min and 24 hr after medium exchange, the cells were fixed with methanol, the nucleus was stained with Propidium iodide (Vector laboratories, Inc.), and subjected to fluorescence microscope observation. The total number of nuclei and fluorescence positive cells were counted for each field of view, and the ratio of fluorescence positive cells was calculated.

Structures can show the parent of a compound that is named as a salt.

`CCc1ccc(CCOc2ccc(CC3SC(=O)NC3=O)cc2)nc1` (stereo not shown) [Pioglitazone, pioglitazone hydrochloride]: the Intima/media ratio in test [1] (0.15 mg/mouse (5 mg/kg) as pioglitazone) was found to be 2.3 ± 1.2. In addition, in test [1] (5 mg/kg as pioglitazone), the “Medial area (μm^2)” value came to 14904 ± 2107 μm^2 and the “Neointimal area (μm^2)” value was found to be 23656 ± 8982 μm^2.
On to fluorescein isothiocyanate [FITC], for which the “Ratio of fluorescence positive cells” value in test [2] is reported as 0%.
